From patent US20130337564A1, “Treatment of Pluripotent Cells” (Janssen Biotech, Inc., priority 2012, published 2013)
Where “and” joins values, the source holds several entries; their conditions need not be identical. Equal entries are not always repeated.

Columns and labels:
Type in all cases: cell-based
[1] = tested on: cells expressing pluripotency markers derived from human embryonic stem cells; assay: MTS viability (toxicity) assay of cells expressing pluripotency markers; set-up: Raw data (duplicate), first replicate / Average: unit not given here; settings: for viability at 10 µM: Homo sapiens, Embryonic stem cell; for viability at 10 µM / % Control: viability of cells expressing pluripotency markers, relative to control; for Raw data (duplicate), first replicate / Raw data (duplicate), second replicate: MTS viability assay raw reading; for Raw data (duplicate), first replicate: replicate 1; for Raw data (duplicate), second replicate: replicate 2; for Average: average of duplicate MTS raw readings; for Average of raw data (duplicate), optical density at 490 nm / % Control (percentage viability of control): MTS on day 4; for % Control (percentage viability of control): relative to Activin A + Wnt3a positive control
Outline: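 A GSK-3B inhibitor library was screened for toxicity to pluripotency-marker-expressing cells. Compound was given in DMEM:F12 with 0.5% FCS and 100 ng/ml Activin A for two days, then replaced by medium with 2% FCS and Activin A. On day 4, MTS absorbance at 490 nm gave viability as percent of Activin A plus Wnt3a control wells.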

[2] = tested on: Sox17 expression in human embryonic stem cells (H9 line); assay: High content screening assay: Sox17 protein expression (differentiation)
Outline: (§1)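 H9 hESCs on MATRIGEL treated days 1-2 with 10 μM compound in DMEM:F12, 0.5% FCS, 100 ng/ml activin A; days 3-4 with 2% FCS plus activin A without compound. Fixed cells immunostained for Sox17 or HNF-3beta with Draq5 nuclear counterstain. Cell number and staining intensity quantified by high-content imaging, 12 fields/well.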

[3] = tested on: HNF-3beta expression in human embryonic stem cells (H9 line); assay: High content screening assay: HNF-3beta protein expression (differentiation)
Outline: as §1

Structure (SMILES)	viability at 10 µM [1] [%]	Raw data (duplicate), first replicate [1]	Raw data (duplicate), second replicate [1]	Average [1]	fold induction at 10 µM ([2]; Homo sapiens, Embryonic stem cell, 10 μM test compound with 100 ng/ml activin A on days 1-2, H9, total intensity by IN Cell Analyzer, strong and moderate hits, read-out: SOX17 Expression, Fold over Wnt 3a/AA control)	SOX-17 Expression Total Intensity [2]	fold induction at 10 µM ([3]; Homo sapiens, Embryonic stem cell, 10 μM test compound with 100 ng/ml activin A on days 1-2, H9, total intensity by IN Cell Analyzer, strong and moderate hits, read-out: HNF3β Expression, Fold over Wnt 3a/AA control)	HNF-3b Expression Total Intensity [3]	Average of raw data (duplicate), optical density at 490 nm ([1]; cmpd conc 2.5 μM)	Average of raw data (duplicate), optical density at 490 nm ([1]; cmpd conc 5 μM)	Average of raw data (duplicate), optical density at 490 nm ([1]; cmpd conc 10 μM)	% Control (percentage viability of control) ([1]; cmpd conc 2.5 μM) [%]	% Control (percentage viability of control) ([1]; cmpd conc 5 μM) [%]	% Control (percentage viability of control) ([1]; cmpd conc 10 μM) [%]	% Control [1]
O=C1NC(=O)C(c2cn(-c3cncnc3)c3ccccc23)=C1c1cn(CCO)c2ccccc12 [Compound 230, 3-[1-(2-Hydroxyethyl)-1H-indol-3-yl]-4-(1-pyrimidin-5-yl-1H-indol-3-yl)-1H-pyrrole-2,5-dione]	81.8	0.680	0.663	0.671	1.14	1104750000	0.95	1052345000							
CN(CCO)CCCn1nc(C2=C(c3cn(-c4cccnc4)c4ccccc34)C(=O)NC2=O)c2ccccc21 [Compound 198, 3-(1-{3-[(2-Hydroxyethyl)(methyl)amino]propyl}-1H-indazol-3-yl)-4-(1-pyridin-3-yl-1H-indol-3-yl)-1H-pyrrole-2,5-dione]	112	0.856	0.905	0.881		20866647		61161468	0.7480	0.6893	0.4619				
O=C1NC(=O)C(c2nn(CCCO)c3ccccc23)=C1c1cn(-c2cccnc2)c2ccc(Cl)cc12 [Compound 52, 3-(5-Chloro-1-pyridin-3-yl-1H-indol-3-yl)-4-[1-(3-hydroxypropyl)-1H-indazol-3-yl]-1H-pyrrole-2,5-dione]	110	0.911	0.884	0.898					0.7886	0.4156	0.1448				
CCN1CCOCCOCCn2cc(c3ccccc32)C2=C(C(=O)NC2=O)c2cn(c3ccccc23)CC1 [Compound 103, 14-Ethyl-6,7,9,10,13,14,15,16-octahydro-12H,23H-5,26:17,22-di(metheno)dibenzo[k,q]pyrrolo[3,4-n][1,4,7,10,19]dioxatriacyclohenicosine-23,25(24H)-dione]		0.141	0.162	0.151					0.4737	0.2618	0.1339	51.4	19.7	0.5	4.3%
O=C1NC(=O)C2=C1c1cn(c3ccccc13)CCOCCOCCN(Cc1cccs1)CCn1cc2c2ccccc21 [Compound 133, 14-(2-Thienylmethyl)-6,7,9,10,13,14,15,16-octahydro-12H,23H-5,26:17,22-di(metheno)dibenzo[k,q]pyrrolo[3,4-n][1,4,7,10,19]dioxatriazacyclohenicosine-23,25(24H)-dione]		0.823	0.634	0.728					0.7939	0.6661	0.3010	92.8	75.0	24.1	98.1%
CN1CCN(C)CCn2cc(c3ccccc32)C2=C(C(=O)NC2=O)c2cn(c3ccccc23)CC1 [Compound 111, 8,11-Dimethyl-6,7,8,9,10,11,12,13-octahydro-20H-5,23:14,19-di(metheno)dibenzo[k,q]pyrrolo[3,4-n][1,4,7,10]tetraazacyclooctadecine-20,22(21H)-dione]		0.821	0.841	0.831					0.8169	0.7718	0.6709	102.9	96.1	81.0	108.0%
CN(C)CCCn1c2c(c3ccccc31)C1=C(C(=O)NC1=O)N(c1cccc(Cl)c1)C2 [Compound 101, 4-(3-Chlorophenyl)-6-[3-(dimethylamino)propyl]-5,6-dihydropyrrolo[3′,4′:5,6]pyrido[3,4-b]indole-1,3(2H,4H)-dione]	100	0.791	0.768	0.779					0.7987	0.7702	0.1390				
O=C1NC(=O)C2=C1c1cn(c3ccccc13)CCOCCOCCN(Cc1cccc3ccccc13)CCn1cc2c2ccccc21 [Compound 136, 14-(Naphthalen-1-ylmethyl)-6,7,9,10,13,14,15,16-octahydro-12H,23H-5,26:17,22-di(metheno)dibenzo[k,q]pyrrolo[3,4-n][1,4,7,10,19]dioxatriazacyclohenicosine-23,25(24H)-dione]		0.699 and 0.697	0.679 and 0.695	0.689 and 0.696					0.8432	0.7935	0.8425	99.6	92.7	99.5	86.3% and 87.3%
CN1CCOCCOCCN(C)CCn2cc(c3ccccc32)C2=C(C(=O)NC2=O)c2cn(c3ccccc23)CC1 [Compound 112, 12,21-Dimethyl-11,12,13,14,16,17,20,21,22,23-decahydro-1H,10H,19H-9,4:24,29-di(metheno)dibenzo[k,q]pyrrolo[3,4-n][1,4,7,10,19,22]dioxatetraazacyclotetracosine-1,3(2H)-dione]		0.981	1.056	1.018					0.8103	0.1283	0.1283	101.9			145.3%
O=C1NC(=O)C(c2cn(CCOCCOCCO)c3ccccc23)=C1c1cn(CCO)c2ccccc12 [Compound 110, 3-[1-(2-Hydroxyethyl)-1H-indol-3-yl]-4-{1-[2-({2-[(2-hydroxyethyl)oxy]ethyl}oxy)ethyl]-1H-indol-3-yl}-1H-pyrrole-2,5-dione]	112	0.948	0.764	0.856					0.8272	0.7879	0.6747				
